Where “and” joins values, the source holds several entries; their conditions need not be identical. Identical values can stand only once. Positions of bridges follow the written chain, without caps; N, C: chain ends. Residues, ends and D or L forms follow the SMILES beside them.

The target of the experiment is NaV1.3 (Homo sapiens, UniProt Q9NY46). The experiment can be described thus: Voltage dependence of steady-state inactivation and activation, NaV1.3. The experiment is classed as cell-based. Here is the method: The voltage dependence of steady-state activation was assessed by recording sodium currents evoked by depolarizing voltage steps ranging from −110 mV to +80 mV in 5 mV increments. Peak conductance (GNa) was derived using the equation G = I/(V − Vrev), where I denotes the measured current, V the applied membrane potential, and Vrev the sodium reversal potential. To evaluate the voltage dependence of steady-state fast inactivation, a two-pulse protocol was used. Cells were conditioned with 500 ms pre-pulses at potentials between −130 mV and −10 mV (10 mV increments), followed by a 20 ms test depolarization to 0 mV to elicit sodium currents. The steady-state fast inactivation currents were plotted as I/Imax, where I = current value and Imax = highest current value within the experiment. The voltage-dependence of steady-state activation and inactivation were determined either in the absence of peptide or following 5 min exposure to peptide at the respective IC50 concentration at the NaV subtype analyzed to streamline the investigation using an effective single concentration as previously described by us.
For calcium influx experiments, bioactivity comparisons between venom fractions and controls were based on the difference between the maximal and minimal fluorescence intensity values obtained from single-replicate assays. Electrophysiological data analysis was conducted using GraphPad Prism (version 8; GraphPad Software, San Diego, CA, USA). Nonlinear regression was applied to fit the concentration–response relationships using a variable Hill slope: log(inhibitor) versus normalized response for determining IC50 values, and log(agonist) versus normalized response for EC50 calculations. Reversibility and dissociation kinetics were analyzed by fitting data with a single-phase exponential decay model, while voltage-dependence of steady-state activation and inactivation parameters were derived from Boltzmann sigmoid fits of normalized conductance (G/Gmax) or current (I/Imax) values to determine the half-activation or half-inactivation voltages (V50). Data are expressed as mean ± SEM, where n represents the number of individual cells analyzed.

NaV1.3, sequence (Q9NY46 whole entry): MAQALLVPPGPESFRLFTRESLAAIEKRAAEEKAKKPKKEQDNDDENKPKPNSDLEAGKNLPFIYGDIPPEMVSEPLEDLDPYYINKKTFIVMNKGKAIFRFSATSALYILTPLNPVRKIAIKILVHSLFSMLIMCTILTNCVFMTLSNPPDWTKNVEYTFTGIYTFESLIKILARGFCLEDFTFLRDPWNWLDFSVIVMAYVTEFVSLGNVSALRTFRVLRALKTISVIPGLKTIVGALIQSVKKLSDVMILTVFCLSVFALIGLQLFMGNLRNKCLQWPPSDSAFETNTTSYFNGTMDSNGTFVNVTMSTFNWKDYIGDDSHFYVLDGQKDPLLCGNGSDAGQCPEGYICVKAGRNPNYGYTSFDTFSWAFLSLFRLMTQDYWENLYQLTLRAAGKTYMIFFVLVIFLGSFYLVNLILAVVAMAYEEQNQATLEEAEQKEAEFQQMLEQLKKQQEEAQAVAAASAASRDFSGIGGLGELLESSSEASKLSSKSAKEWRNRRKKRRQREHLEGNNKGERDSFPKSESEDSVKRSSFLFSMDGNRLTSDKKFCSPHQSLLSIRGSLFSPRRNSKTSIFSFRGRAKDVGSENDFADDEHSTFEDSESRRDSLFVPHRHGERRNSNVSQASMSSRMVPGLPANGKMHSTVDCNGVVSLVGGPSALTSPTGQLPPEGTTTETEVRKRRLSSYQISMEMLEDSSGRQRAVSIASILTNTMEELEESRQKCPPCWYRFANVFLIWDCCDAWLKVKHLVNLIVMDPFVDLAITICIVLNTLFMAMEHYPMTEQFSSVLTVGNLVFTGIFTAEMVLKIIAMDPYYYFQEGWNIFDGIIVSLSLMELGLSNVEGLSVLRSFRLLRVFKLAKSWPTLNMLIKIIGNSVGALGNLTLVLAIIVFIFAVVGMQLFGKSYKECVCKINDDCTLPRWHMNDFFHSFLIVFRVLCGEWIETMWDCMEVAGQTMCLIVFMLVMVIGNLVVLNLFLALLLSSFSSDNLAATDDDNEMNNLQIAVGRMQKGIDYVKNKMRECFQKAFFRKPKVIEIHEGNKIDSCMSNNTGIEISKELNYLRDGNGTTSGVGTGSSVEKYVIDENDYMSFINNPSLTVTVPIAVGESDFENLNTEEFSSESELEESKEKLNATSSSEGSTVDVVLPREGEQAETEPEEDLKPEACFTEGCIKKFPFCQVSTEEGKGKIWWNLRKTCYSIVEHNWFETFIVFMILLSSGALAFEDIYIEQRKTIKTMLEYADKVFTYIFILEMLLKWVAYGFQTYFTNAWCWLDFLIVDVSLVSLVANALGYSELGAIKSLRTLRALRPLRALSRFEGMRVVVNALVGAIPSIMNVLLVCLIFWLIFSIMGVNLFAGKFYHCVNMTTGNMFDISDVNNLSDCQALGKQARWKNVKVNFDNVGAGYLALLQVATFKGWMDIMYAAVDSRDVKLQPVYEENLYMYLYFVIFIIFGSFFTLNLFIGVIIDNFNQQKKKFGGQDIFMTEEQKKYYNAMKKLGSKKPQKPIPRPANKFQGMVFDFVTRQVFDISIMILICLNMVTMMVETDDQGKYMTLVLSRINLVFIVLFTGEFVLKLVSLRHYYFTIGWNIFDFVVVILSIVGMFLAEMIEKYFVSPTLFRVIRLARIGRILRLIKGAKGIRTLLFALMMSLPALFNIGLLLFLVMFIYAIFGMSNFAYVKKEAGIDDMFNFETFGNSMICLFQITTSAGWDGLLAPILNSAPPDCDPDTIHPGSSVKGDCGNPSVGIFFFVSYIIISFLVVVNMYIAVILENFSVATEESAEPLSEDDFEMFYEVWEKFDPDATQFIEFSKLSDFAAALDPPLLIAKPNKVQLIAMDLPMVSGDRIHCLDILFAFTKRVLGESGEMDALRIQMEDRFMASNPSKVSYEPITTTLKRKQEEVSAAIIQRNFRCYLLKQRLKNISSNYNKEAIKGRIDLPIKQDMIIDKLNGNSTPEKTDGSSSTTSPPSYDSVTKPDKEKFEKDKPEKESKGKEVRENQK
NaV1.3, sequence (Q07699 19-218, further chain): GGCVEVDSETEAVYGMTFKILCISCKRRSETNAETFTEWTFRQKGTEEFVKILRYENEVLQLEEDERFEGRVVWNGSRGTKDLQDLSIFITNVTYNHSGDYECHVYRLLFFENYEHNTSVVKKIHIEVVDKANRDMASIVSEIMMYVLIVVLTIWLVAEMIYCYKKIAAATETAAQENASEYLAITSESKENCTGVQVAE

With `CC(C)C[C@@H]1NC(=O)[C@H](Cc2ccccc2)NC(=O)[C@H](Cc2ccc(O)cc2)NC(=O)[C@H](CCCNC(=N)N)NC(=O)[C@@H](NC(=O)[C@@H](N)CCC(=O)O)CSSC[C@@H]2NC(=O)[C@@H]3CSSC[C@@H](C(=O)N[C@H](C(=O)N[C@@H](Cc4c[nH]c5ccccc45)C(=O)N[C@@H](CC(=O)O)C(=O)N[C@@H](Cc4c[nH]c5ccccc45)C(=O)N[C@H](C(=O)N[C@@H](Cc4ccccc4)C(N)=O)[C@@H](C)O)C(C)C)NC(=O)[C@H](Cc4c[nH]c5ccccc45)NC(=O)[C@H](CCC(N)=O)NC(=O)[C@H](Cc4c[nH]cn4)NC(=O)[C@H](CCCCN)NC(=O)[C@H](CC(N)=O)NC(=O)[C@H](Cc4c[nH]cn4)NC(=O)[C@H](CSSC[C@H](NC(=O)CNC(=O)CNC1=O)C(=O)N[C@@H](CO)C(=O)N[C@@H](CCC(N)=O)C(=O)NCC(=O)N[C@@H](CCC(=O)O)C(=O)N[C@@H](CCCCN)C(=O)N3)NC(=O)[C@H](C(C)C)NC(=O)[C@H](CC(C)C)NC(=O)[C@H](Cc1c[nH]cn1)NC(=O)[C@H](CCC(=O)O)NC2=O` [sOa1a-NH2] (H-ECRYFLGGCSQGEKCCEHLVCHNKHQWCVWDWTF-NH2; disulfide 2-16, 9-21, 15-28; N-terminus assumed), where the note is “control V50 = −21 ± 0.4 mV, steps −110 to +80 mV in 5 mV increments, mean ± SEM, 3 to 5 repeats”, the “V50 of steady-state activation in presence of peptide, NaV1.3” value is listed as −26 mV. In addition, where the note is “control V50 = −71 ± 0.71 mV, 5 min exposure at IC50 concentration, 23 nM, 500 ms pre-pulses −130 to −10 mV, mean ± SEM, 3 to 5 repeats”, the “V50 of steady-state inactivation in presence of peptide, NaV1.3” value is -57 ± 1.4 mV and −57 mV. The “ΔV50 of steady-state inactivation, NaV1.3” value (peptide vs control, shift to more depolarized potentials, 3 to 5 repeats) was determined as 14 mV. Moreover, where the note is “presence of 23 nM sOa1a-NH2”, the “Shift in voltage of activation, NaV1.3” value is reported as ≤ 5 mV.

(Values after PMC12656268, “Venom Peptides Across Asian and American Tarantulas Utilize Dual Pharmacology to Target Activation and Fast Inactivation of Voltage-Gated Sodium Channels” (Toxins, 2025).)
